# According to patent US20250090507A1, “Methods of Treating Cancer With a B-RAF Inhibitor” (MapKure, LLC, priority 2022, published 2025):
# “Also recorded” adds a separate entry of the source.
# Columns and labels:
# [1] = test system: RAF family of serine/threonine kinases; experiment: Preclinical RAF kinase inhibition; type: biochemical
# [2] = test system: circulating tumor DNA; experiment: Circulating tumor DNA variant allele frequency in melanoma pts; type: in vivo, human; details: ctDNA, subset of melanoma pts
# Description: Peripheral blood samples were collected at specified timepoints as described in the schedule of assessments to be used for the longitudinal evaluation ctDNA by molecular (NGS) methodologies as pharmacodynamic biomarkers associated with response or resistance.
# [3] = Log P; type: physicochemical
# [4] = Solubility of the solid form; type: physicochemical; details: Form I
# [5] = test system: patients with tumors harboring B-RAF or K-RAS/N-RAS mutations; experiment: Phase 1 study: tumor response by investigators using RECIST v1.1; type: in vivo, human
# Procedure: Objective response rate was defined as the proportion of patients who had confirmed CR or PR, assessed by the investigator using RECIST v1.1.
# Clinical benefit rate was defined as the proportion of patients with best overall response (BOR) of confirmed CR, PR, or SD lasting ≥16 weeks.
# Tumor imaging were performed within 21 days prior to the first study treatment. Results of standard of care tests or examinations performed prior to obtaining informed consent and ≤21 days prior to the first administration of IMP may be used for the purposes of screening rather than repeating the standard of care tests. During the study, tumor imaging was performed approximately every 8 (±1) weeks in the first year and approximately every 12 (±1) weeks thereafter. Tumor assessments were required to be performed on schedule regardless of whether study treatment has been administered or held.
# Tumor response was assessed by the investigators using RECIST v1.1. The same evaluator should perform assessments, if possible, to ensure internal consistency across visits.
# For the analysis of ORR, DCR, and CBR, summary tables presenting the number and proportion of responders with the 2-sided exact (Clopper-Pearson) 95% CI for response rates were presented. Summary of each response category of the BOR (confirmed CR, confirmed PR, unconfirmed CR, unconfirmed PR, SD, or PD) were presented as well. Waterfall plots of maximum tumor shrinkage per patient were presented.
# Treatment emergent adverse events (TEAEs) were graded per NCI CTCAE v5.0. Tumor responses were assessed by investigators using RECIST v1.1.
# [6] = test system: tumor cell lines harboring non-V600 B-RAF mutations; experiment: Preclinical inhibition of tumor cell lines; type: cell-based; details: preclinical studies
# [7] = test system: B-RAF/MEK inhibitor-resistant tumors; experiment: Preclinical activity towards resistant tumors; details: preclinical studies
# [8] = pKa; type: physicochemical
structure (smiles),measurement,setting,value
"O=C1CCc2c(Oc3ccc4c(c3)[C@H]3[C@H](NC(=O)Nc5cc(F)c(F)cc5F)[C@H]3O4)ccnc2N1 [Compound A, 1-((1S,1aS,6bS)-5-((7-oxo-5,6,7,8-tetrahydro-1,8-naphthyridin-4-yl)oxy)-1a,6b-dihydro-1H-cyclopropa[b]benzofuran-1-yl)-3-(2,4,5-trifluorophenyl)urea]",Potency against RAF monomer & dimer,[1]; monomer versus dimer,equal potency
same,Inhibitory activity against RAF kinases,[1]; preclinical,potent inhibitory activity; also recorded: highly potent
same,"maximum reduction of VAF, range",[2],98.7-99.9%
same,maximum reduction of variant allele frequency (VAF) of detected mutations,[2]; across evaluated subjects,99.3%
same,logP,[3],> 4.46
same,Solubility,[4]; in dimethyl sulfoxide (DMSO) and dimethylacetamide (DMA),high solubility
same,Solubility,[4]; in water,Low solubility
same,clinical benefit rate,[5]; 33 efficacy evaluable patients,42%
same,disease control rate,[5]; 33 efficacy evaluable patients,79%
same,objective response rate,[5]; 33 efficacy evaluable patients,18%
same,Objective responders,[5]; BRAF K601E/PIK3CA endometrial cancer,1
same,Objective responders,[5]; BRAF V600E LGSOC,1
same,Objective responders,[5]; BRAF V600E cholangiocarcinoma,1
same,Objective responders,"[5]; BRAF V600E melanoma pts who progressed on prior BRAF/MEK and checkpoint inhibitors (1 CR, 1 PR)",2
same,Patients evaluable for tumor response with PR at Week 8,[5]; Cohort 5 (40 mg QD),2 patients
same,CRC patients with stable disease,"[5]; FIG. 1, 2/2 CRC patients",100%
same,responders that have melanoma,"[5]; FIG. 1, 4/5 responders",80%
same,overall response rate,"[5]; FIG. 1, 5/22 evaluable patients",22.7%
same,"melanoma patients with stable disease, partial responses, or complete responses","[5]; FIG. 1, 7/7 melanoma patients",100%
same,melanoma patients with partial responses,"[5]; FIG. 1, of 7 melanoma patients",3
same,melanoma patients with stable disease,"[5]; FIG. 1, of 7 melanoma patients",3
same,melanoma patients with complete responses,"[5]; FIG. 1, of 7 melanoma patients, 1 CT readout",1
same,Objective responders,[5]; KRAS G12D appendiceal cancer,1
same,Objective responders,[5]; NRAS G12S melanoma,1
same,Objective responders,[5]; NRAS Q61K melanoma,1
same,confirmed responses,[5]; in 33 efficacy evaluable patients,6
same,complete response,"[5]; number of patients, 33 efficacy evaluable",one
same,CR,"[5]; number of pts, 42 pts",1
same,SD≥24 weeks,"[5]; number of pts, 42 pts",8
same,cPR,"[5]; number of pts, 42 pts",5
same,uPR,"[5]; number of pts, 42 pts",2
same,Antitumor activity,[5]; pts with no approved targeted therapy options / heavily pretreated patients,Antitumor activity was observed; also recorded: encouraging anti-tumor activity was observed
same,Inhibition of tumor cell lines,[6],inhibited
same,Activity towards resistant tumors,[7],active
same,pKa,[8],5.28
